Experiments:
[1] = (§1) The drug is tested on Z-017 corresponding to mouse gut metagenome with ENA study accession number: PRJEB37062 and ENA sample accession number: ERS12561816 for biotransformation under anaerobic condition. The drug concentrations were measured over 9 timepoints collected between 0 and 24 hours of incubation by liquid-chromatography-coupled mass spectrometry (LC–MS); conditions: 2 µM
[2] = human gut metagenome, 24 h, 2 µM
[3] = as §1, with “Z-006” for “Z-017”, “ERS12561806” for “ERS12561816”; conditions: 2 µM
[4] = human gut metagenome, 24 h, 2 µM; remark: listed apart in the source
[5] = human gut metagenome, 24 h, 2 µM; remark: listed apart in the source
[6] = as §1, with “Z-003” for “Z-017”, “pig” for “mouse”, “ERS12561803” for “ERS12561816”; conditions: 2 µM
[7] = as §1, with “Z-005” for “Z-017”, “to” for “to mouse gut”, “ERS12561805” for “ERS12561816”; conditions: 2 µM
[8] = human gut metagenome, 24 h, 2 µM; remark: listed apart in the source
[9] = as §1, with “WLS-370” for “Z-017”, “human” for “mouse”, “ERS12561793” for “ERS12561816”; conditions: 2 µM
[10] = as §1, with “WLS-090” for “Z-017”, “human” for “mouse”, “ERS12561753” for “ERS12561816”; conditions: 2 µM
[11] = as §1, with “Z-024” for “Z-017”, “pig” for “mouse”, “ERS12561823” for “ERS12561816”; conditions: 2 µM
[12] = as §1, with “WLS-039” for “Z-017”, “human” for “mouse”, “ERS12561746” for “ERS12561816”; conditions: 2 µM
[13] = as §1, with “Z-020” for “Z-017”, “rabbit” for “mouse”, “ERS12561819” for “ERS12561816”; conditions: 2 µM
[14] = human gut metagenome, 24 h, 2 µM; remark: listed apart in the source
[15] = human gut metagenome, 24 h, 2 µM; remark: listed apart in the source
[16] = human gut metagenome, 24 h, 2 µM; remark: listed apart in the source
[17] = as §1, with “WLS-073” for “Z-017”, “human” for “mouse”, “ERS12561749” for “ERS12561816”; conditions: 2 µM
[18] = as §1, with “Z-016” for “Z-017”, “ERS12561815” for “ERS12561816”; conditions: 2 µM
[19] = as §1, with “Z-029” for “Z-017”, “rat” for “mouse”, “ERS12561828” for “ERS12561816”; conditions: 2 µM
[20] = human gut metagenome, 24 h, 2 µM; remark: listed apart in the source
Further: call rule not given here.

COc1ccc2[nH]c([S+]([O-])Cc3ncc(C)c(OC)c3C)nc2c1 (stereo not given) [OMEPRAZOLE]
Bacterial Biotransformation [1]: Compound NOT metabolized | Bacterial Biotransformation [2]: Compound metabolized | Bacterial Biotransformation [3]: Compound NOT metabolized | Bacterial Biotransformation [4]: Compound metabolized | Bacterial Biotransformation [5]: Compound metabolized | Bacterial Biotransformation [6]: Compound NOT metabolized | Bacterial Biotransformation [7]: Compound NOT metabolized | Bacterial Biotransformation [8]: Compound metabolized | Bacterial Biotransformation [9]: Compound metabolized | Bacterial Biotransformation [10]: Compound metabolized | Bacterial Biotransformation [11]: Compound NOT metabolized | Bacterial Biotransformation [12]: Compound metabolized | Bacterial Biotransformation [13]: Compound NOT metabolized | Bacterial Biotransformation [14]: Compound metabolized | Bacterial Biotransformation [15]: Compound metabolized | Bacterial Biotransformation [16]: Compound metabolized | Bacterial Biotransformation [17]: Compound metabolized | Bacterial Biotransformation [18]: Compound metabolized | Bacterial Biotransformation [19]: Compound metabolized | Bacterial Biotransformation [20]: Compound metabolized

NS(=O)(=O)c1cc2c(cc1Cl)N=C(CSCc1ccccc1)NS2(=O)=O [BENZTHIAZIDE]
Bacterial Biotransformation [1]: Compound NOT metabolized | Bacterial Biotransformation [2]: Compound NOT metabolized | Bacterial Biotransformation [3]: Compound NOT metabolized | Bacterial Biotransformation [4]: Compound NOT metabolized | Bacterial Biotransformation [5]: Compound NOT metabolized | Bacterial Biotransformation [6]: Compound NOT metabolized | Bacterial Biotransformation [7]: Compound NOT metabolized | Bacterial Biotransformation [8]: Compound NOT metabolized | Bacterial Biotransformation [9]: Compound NOT metabolized | Bacterial Biotransformation [10]: Compound NOT metabolized | Bacterial Biotransformation [11]: Compound metabolized | Bacterial Biotransformation [12]: Compound NOT metabolized | Bacterial Biotransformation [13]: Compound NOT metabolized | Bacterial Biotransformation [14]: Compound NOT metabolized | Bacterial Biotransformation [15]: Compound NOT metabolized | Bacterial Biotransformation [16]: Compound NOT metabolized | Bacterial Biotransformation [17]: Compound NOT metabolized | Bacterial Biotransformation [18]: Compound NOT metabolized | Bacterial Biotransformation [19]: Compound NOT metabolized | Bacterial Biotransformation [20]: Compound NOT metabolized

CCCCCOC(=O)Nc1nc(=O)n([C@@H]2O[C@H](C)[C@@H](O)[C@H]2O)cc1F [CAPECITABINE]
Bacterial Biotransformation [1]: Compound metabolized | Bacterial Biotransformation [2]: Compound metabolized | Bacterial Biotransformation [3]: Compound NOT metabolized | Bacterial Biotransformation [4]: Compound metabolized | Bacterial Biotransformation [5]: Compound metabolized | Bacterial Biotransformation [6]: Compound metabolized | Bacterial Biotransformation [7]: Compound metabolized | Bacterial Biotransformation [8]: Compound metabolized | Bacterial Biotransformation [9]: Compound metabolized | Bacterial Biotransformation [10]: Compound metabolized | Bacterial Biotransformation [11]: Compound metabolized | Bacterial Biotransformation [12]: Compound metabolized | Bacterial Biotransformation [13]: Compound metabolized | Bacterial Biotransformation [14]: Compound metabolized | Bacterial Biotransformation [15]: Compound metabolized | Bacterial Biotransformation [16]: Compound metabolized | Bacterial Biotransformation [17]: Compound metabolized | Bacterial Biotransformation [18]: Compound metabolized | Bacterial Biotransformation [19]: Compound metabolized | Bacterial Biotransformation [20]: Compound metabolized

CNCCC(Oc1ccc(C(F)(F)F)cc1)c1ccccc1 (stereo not given) [FLUOXETINE]
Bacterial Biotransformation [1]: Compound NOT metabolized | Bacterial Biotransformation [2]: Compound NOT metabolized | Bacterial Biotransformation [3]: Compound NOT metabolized | Bacterial Biotransformation [4]: Compound NOT metabolized | Bacterial Biotransformation [5]: Compound NOT metabolized | Bacterial Biotransformation [6]: Compound NOT metabolized | Bacterial Biotransformation [7]: Compound NOT metabolized | Bacterial Biotransformation [8]: Compound metabolized | Bacterial Biotransformation [9]: Compound metabolized | Bacterial Biotransformation [10]: Compound NOT metabolized | Bacterial Biotransformation [11]: Compound NOT metabolized | Bacterial Biotransformation [12]: Compound NOT metabolized | Bacterial Biotransformation [13]: Compound NOT metabolized | Bacterial Biotransformation [14]: Compound metabolized | Bacterial Biotransformation [15]: Compound NOT metabolized | Bacterial Biotransformation [16]: Compound NOT metabolized | Bacterial Biotransformation [17]: Compound NOT metabolized | Bacterial Biotransformation [18]: Compound NOT metabolized | Bacterial Biotransformation [19]: Compound NOT metabolized | Bacterial Biotransformation [20]: Compound NOT metabolized

CC(C)OC(=O)C(C)(C)Oc1ccc(C(=O)c2ccc(Cl)cc2)cc1 [FENOFIBRATE]
Bacterial Biotransformation [1]: Compound metabolized | Bacterial Biotransformation [2]: Compound NOT metabolized | Bacterial Biotransformation [3]: Compound metabolized | Bacterial Biotransformation [4]: Compound metabolized | Bacterial Biotransformation [5]: Compound NOT metabolized | Bacterial Biotransformation [6]: Compound metabolized | Bacterial Biotransformation [7]: Compound metabolized | Bacterial Biotransformation [8]: Compound NOT metabolized | Bacterial Biotransformation [9]: Compound metabolized | Bacterial Biotransformation [10]: Compound metabolized | Bacterial Biotransformation [11]: Compound NOT metabolized | Bacterial Biotransformation [12]: Compound NOT metabolized | Bacterial Biotransformation [13]: Compound metabolized | Bacterial Biotransformation [14]: Compound metabolized | Bacterial Biotransformation [15]: Compound metabolized | Bacterial Biotransformation [16]: Compound NOT metabolized | Bacterial Biotransformation [17]: Compound NOT metabolized | Bacterial Biotransformation [18]: Compound metabolized | Bacterial Biotransformation [19]: Compound NOT metabolized | Bacterial Biotransformation [20]: Compound metabolized

CC(C)c1c(C(=O)Nc2ccccc2)c(-c2ccccc2)c(-c2ccc(F)cc2)n1CC[C@@H](O)C[C@@H](O)CC(=O)O [ATORVASTATIN]
Bacterial Biotransformation [1]: Compound NOT metabolized | Bacterial Biotransformation [2]: Compound metabolized | Bacterial Biotransformation [3]: Compound NOT metabolized | Bacterial Biotransformation [4]: Compound metabolized | Bacterial Biotransformation [5]: Compound metabolized | Bacterial Biotransformation [6]: Compound metabolized | Bacterial Biotransformation [7]: Compound metabolized | Bacterial Biotransformation [8]: Compound metabolized | Bacterial Biotransformation [9]: Compound metabolized | Bacterial Biotransformation [10]: Compound metabolized | Bacterial Biotransformation [11]: Compound NOT metabolized | Bacterial Biotransformation [12]: Compound metabolized | Bacterial Biotransformation [13]: Compound NOT metabolized | Bacterial Biotransformation [14]: Compound metabolized | Bacterial Biotransformation [15]: Compound metabolized | Bacterial Biotransformation [16]: Compound metabolized | Bacterial Biotransformation [17]: Compound NOT metabolized | Bacterial Biotransformation [18]: Compound NOT metabolized | Bacterial Biotransformation [19]: Compound NOT metabolized | Bacterial Biotransformation [20]: Compound metabolized

CC(C(=O)O)c1ccc2c(c1)Cc1cccnc1O2 (stereo not given) [PRANOPROFEN]
Bacterial Biotransformation [1]: Compound NOT metabolized | Bacterial Biotransformation [2]: Compound metabolized | Bacterial Biotransformation [3]: Compound metabolized | Bacterial Biotransformation [4]: Compound metabolized | Bacterial Biotransformation [5]: Compound metabolized | Bacterial Biotransformation [6]: Compound metabolized | Bacterial Biotransformation [7]: Compound metabolized | Bacterial Biotransformation [8]: Compound metabolized | Bacterial Biotransformation [9]: Compound metabolized | Bacterial Biotransformation [10]: Compound metabolized | Bacterial Biotransformation [11]: Compound NOT metabolized | Bacterial Biotransformation [12]: Compound metabolized | Bacterial Biotransformation [13]: Compound metabolized | Bacterial Biotransformation [14]: Compound metabolized | Bacterial Biotransformation [15]: Compound metabolized | Bacterial Biotransformation [16]: Compound metabolized | Bacterial Biotransformation [17]: Compound metabolized | Bacterial Biotransformation [18]: Compound metabolized | Bacterial Biotransformation [19]: Compound metabolized | Bacterial Biotransformation [20]: Compound metabolized

From ChEMBL document CHEMBL5724914, “Linking interpersonal differences in gut microbiota composition and drug biotransformation activity” (2024)
